Results from the supplement of paper PMC10307832.

Experiments:
Test in all cases: relative viability (nuclei count vs DMSO), 5 days (fraction); higher = more cells survive
Alpelisib + AZD7762 = compound: Cc1nc(NC(=O)N2CCC[C@H]2C(N)=O)sc1-c1ccnc(C(C)(C)C(F)(F)F)c1 [Alpelisib] + NC(=O)Nc1cc(-c2cccc(F)c2)sc1C(=O)N[C@H]1CCCNC1 [AZD7762] (partner 0.2 µM)
Method in brief: (§1)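 Lung cancer cell lines, seeded in 1536-well plates, were treated the following day by pin tool with a single drug or with five library-drug doses (not always all listed) in √10 steps on top of a fixed anchor-drug dose. Cells were fixed and nuclei stained in one step after 5 days, and nuclei were counted. Relative viability is the nuclei count for treated wells divided by that for vehicle wells, reported as medians of duplicate plates.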

Vemurafenib + Alpelisib = compound: CCCS(=O)(=O)Nc1ccc(F)c(C(=O)c2c[nH]c3ncc(-c4ccc(Cl)cc4)cc23)c1F [Vemurafenib] + Cc1nc(NC(=O)N2CCC[C@H]2C(N)=O)sc1-c1ccnc(C(C)(C)C(F)(F)F)c1 [Alpelisib] (partner 2 µM)
Method in brief: as §1

Vemurafenib + Lapatinib = compound: CCCS(=O)(=O)Nc1ccc(F)c(C(=O)c2c[nH]c3ncc(-c4ccc(Cl)cc4)cc23)c1F [Vemurafenib] + CS(=O)(=O)CCNCc1ccc(-c2ccc3ncnc(Nc4ccc(OCc5cccc(F)c5)c(Cl)c4)c3c2)o1 [Lapatinib] (partner 2 µM)
Method in brief: as §1

OSI-027 + Tozasertib = compound: COc1cccc2cc(-c3nc([C@H]4CC[C@H](C(=O)O)CC4)n4ncnc(N)c34)[nH]c12 [OSI-027] + Cc1cc(Nc2cc(N3CCN(C)CC3)nc(Sc3ccc(NC(=O)C4CC4)cc3)n2)n[nH]1 [Tozasertib] (partner 0.1 µM)
Method in brief: as §1

Cell Line | relative viability (Alpelisib + AZD7762; first compound 0.04 µM) | relative viability (Alpelisib + AZD7762; first compound 0.1265 µM) | relative viability (Alpelisib + AZD7762; first compound 0.4 µM) | relative viability (Alpelisib + AZD7762; first compound 1.265 µM) | relative viability (Alpelisib + AZD7762; first compound 4 µM) | relative viability (Vemurafenib + Alpelisib; first compound 0.03162 µM) | relative viability (Vemurafenib + Alpelisib; first compound 0.1 µM) | relative viability (Vemurafenib + Alpelisib; first compound 0.3162 µM) | relative viability (Vemurafenib + Alpelisib; first compound 1 µM) | relative viability (Vemurafenib + Lapatinib; first compound 0.03162 µM) | relative viability (Vemurafenib + Lapatinib; first compound 1 µM) | relative viability (OSI-027 + Tozasertib; first compound 0.01 µM) | relative viability (OSI-027 + Tozasertib; first compound 0.03162 µM) | relative viability (OSI-027 + Tozasertib; first compound 0.1 µM) | relative viability (OSI-027 + Tozasertib; first compound 0.3162 µM) | relative viability (OSI-027 + Tozasertib; first compound 1 µM) | relative viability (Vemurafenib + Lapatinib; first compound 0.1 µM) | relative viability (Vemurafenib + Lapatinib; first compound 0.3162 µM)
CAL-12T | 0.7 | 0.593 | 0.754 | 0.566 | 0.643 | 1.07 | 1.21 | 1.4 | 1.33 | 0.63 | 0.618 | 0.377 | 0.287 | 0.317 | 0.294 | 0.212 |  | 
NCI-H1734 | 0.604 | 0.556 | 0.584 | 0.397 | 0.209 | 0.598 | 0.7 | 0.602 | 0.603 | 0.872 | 0.993 | 0.299 | 0.271 | 0.265 | 0.222 | 0.24 | 1.04 | 0.903
NCI-H358 | 0.506 | 0.386 | 0.497 | 0.301 | 0.295 | 0.872 |  | 1.16 | 0.809 | 0.408 | 0.407 | 0.105 | 0.0898 | 0.0968 | 0.0931 | 0.0733 |  | 0.505
NCI-H650 | 1.08 | 0.769 | 0.931 | 0.773 | 0.837 | 0.954 | 1.12 | 0.621 | 0.781 | 0.838 | 0.681 | 0.711 | 0.738 | 0.637 | 0.605 | 0.411 | 1.15 | 0.313
BEN | 0.67 | 0.59 | 0.756 | 0.825 | 0.549 | 0.966 | 0.98 | 0.793 | 0.784 | 0.765 | 0.525 | 0.566 | 0.625 | 0.469 | 0.529 | 0.383 | 0.77 | 0.323
NCI-H647 | 0.586 | 0.322 | 0.688 | 0.393 | 0.325 | 0.898 | 1.12 | 0.995 | 0.891 | 0.951 | 0.949 | 0.401 | 0.291 | 0.292 | 0.433 | 0.147 | 1.06 | 0.852
HCC-44 | 1 | 1.02 | 1.02 | 1.03 | 1.07 | 0.761 | 0.755 | 0.784 | 0.795 | 0.991 | 1.04 | 0.945 | 0.859 | 1.05 | 0.84 | 0.685 | 0.993 | 0.935
NCI-H2347 | 0.756 | 0.661 | 0.815 | 0.81 | 0.764 | 1.01 | 1.02 | 0.757 | 1.04 | 0.794 | 0.637 | 0.362 | 0.467 | 0.58 | 0.564 | 0.317 | 1.02 | 0.628
LC-2-ad | 0.812 | 0.874 | 0.863 | 0.684 | 0.583 | 0.831 | 0.557 | 0.867 | 0.877 | 0.881 | 0.866 | 0.464 | 0.4 | 0.449 | 0.443 | 0.397 | 0.928 | 0.778
NCI-H838 | 0.916 | 0.946 | 1.02 | 0.775 | 0.86 | 0.879 | 0.957 |  | 1.04 | 0.877 | 1.12 | 0.307 | 0.482 | 0.264 | 0.26 | 0.214 | 1.05 | 
EMC-BAC-2 | 1.1 | 1.05 | 0.946 | 0.832 | 0.581 | 0.704 | 0.657 | 0.704 | 0.698 | 0.874 | 0.882 | 0.281 | 0.284 | 0.254 | 0.287 | 0.24 | 0.916 | 0.812
NCI-H3122 | 0.989 | 1.03 | 0.978 | 0.693 | 0.589 | 0.814 | 0.761 | 0.896 | 0.862 | 1.03 | 1.02 | 0.542 | 0.38 | 0.385 | 0.434 | 0.287 | 1.04 | 1.12
NCI-H1395 | 0.438 | 0.379 | 0.404 | 0.393 | 0.392 | 1.01 | 1.01 |  | 1.09 | 0.891 | 1.19 | 0.675 | 0.718 | 0.683 | 0.67 | 0.611 | 0.95 | 
NCI-H1944 | 0.452 | 0.6 | 0.605 | 0.3 | 0.344 | 0.811 | 0.572 | 0.85 | 0.837 | 0.818 | 0.789 | 0.239 | 0.251 | 0.22 | 0.221 | 0.175 | 0.815 | 0.725
H3255 | 0.86 | 0.88 | 1.32 | 0.799 | 0.864 | 0.688 |  | 0.643 | 0.663 | 0.254 | 0.28 | 0.749 | 0.62 | 0.604 | 0.555 | 0.436 |  | 0.283
NCI-H2087 | 1.39 | 1.3 | 1.59 | 1.22 | 1.36 | 1.08 | 1.02 |  | 1.07 | 0.761 | 0.967 | 0.228 | 0.254 | 0.257 | 0.234 | 0.188 | 0.981 | 
RERF-LC-KJ | 0.871 | 0.99 | 1.5 | 0.762 | 0.724 | 0.583 | 0.686 | 0.873 | 0.771 | 0.782 | 0.891 | 0.453 | 0.531 | 0.477 | 0.468 | 0.385 | 0.903 | 0.799
